Experiments:
[1] = Inhibited autoxidation of methyl linoleate in Triton X-100 micelles (O2 uptake kinetics); conditions: for n (stoichiometric factor of peroxyl radical trapping): MeLin/Triton X-100 micelles
Method: Autoxidation studies were performed as previously described, with slight modifications. In a typical experiment, 2.5 mL of air-saturated buffered (PBS, 50 mM, pH 7.4) aqueous dispersion of MeLin (final concentration 2.74 mM) in Triton™ X-100 (final concentration 16 mM) micelles were prepared by vortex mixing. A fresh stock solution of AAPH was added (final concentration 2.5 mM), immediately followed by addition (5–30 μL) of a stock solution of the antioxidant in acetonitrile (final concentration of 1–20 μM) and by additional vortex mixing (5 s). The mixture was sealed in a 2 mL glass vial provided with a PTFE-coated stirring bar and capped with the O2 sensor. The sample was equilibrated at 37 °C in a thermostatted bath equipped with a sealed magnetic stirrer, and oxygen concentration was monitored with time as previously described. Oxygen consumption in the absence of antioxidants was compared with that recorded in the presence of butein, homobutein, or α-tocopherol (α-TOH) as the reference antioxidant. […]. The stoichiometric factor n was determined from the length of the inhibited period τ by Equation (3). The rate of initiation Ri was determined in preliminary experiments using α-TOH as the inhibitor (n = 2) by Equation (3). (1) −d[O2]/dt=kp[RH]Ri/nkinh[AH]+Ri (2) R0/Rinh−Rinh/R0=nkinh[AH]/2ktRi (3) n=Riτ/[AH]
To study the antioxidant activity of butein and homobutein on quantitative grounds, we performed inhibited autoxidation studies using biomimetic neutral micelles of methyl linoleate (MeLin) in aqueous Triton™ X-100 (with 50 mM PBS, pH 7.4, 37 °C), since it is a well-validated model we and others used in previous studies. The reaction kinetics was followed by monitoring oxygen consumption via miniaturized NIR-fluorescence-quenching O2 probes, according to a previously validated protocol, both in the absence and in the presence of different concentrations of butein or homobutein. The reaction was initiated thermally in the aqueous phase by the controlled decomposition of the azo compound AAPH so as to clearly distinguish the chain-breaking mechanism from other efficacies based on interference with the initiation process (e.g., the Fenton reaction by metal chelation) and α-TOH was used as the reference antioxidant.

[2] = biological target: T1, mushroom tyrosinase (mTYR) (Agaricus bisporus, UniProt C7FF04); test: Inhibition of mushroom tyrosinase monophenolase reaction (substrate L-tyrosine, dopachrome at 475 nm); assay type: biochemical; conditions: for Vmax^app / IC50: 30 °C; for Vmax^app: pH 6.8, L-tyrosine; for IC50: IC50 Monophenolase; for inhibition mode, monophenolase: from M-M and Lineweaver–Burk plots; for KI′ Calc. from Km / KI′ Calc. from Vmax / KI′ Uncompetitive / Ki: monophenolase; for Ki: KI Competitive
T1 construct: purchased Sigma-Aldrich (Milan, Italy)
T1 sequence (C7FF04 1-392): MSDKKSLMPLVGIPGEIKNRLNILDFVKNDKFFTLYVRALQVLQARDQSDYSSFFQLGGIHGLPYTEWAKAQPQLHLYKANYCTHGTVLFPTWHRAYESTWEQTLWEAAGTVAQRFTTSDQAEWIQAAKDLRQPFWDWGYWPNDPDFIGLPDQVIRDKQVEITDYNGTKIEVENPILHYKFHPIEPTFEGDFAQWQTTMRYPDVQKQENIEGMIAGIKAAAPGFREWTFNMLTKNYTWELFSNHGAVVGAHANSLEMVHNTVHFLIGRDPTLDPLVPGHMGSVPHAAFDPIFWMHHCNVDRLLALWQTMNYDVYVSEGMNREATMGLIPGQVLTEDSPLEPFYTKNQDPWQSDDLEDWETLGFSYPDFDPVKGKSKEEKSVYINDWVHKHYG
Method: (§1) Measurements were performed at 30 °C in phosphate buffer (50 mM, pH 6.8) in polystyrene low-volume cuvettes (1.5 mL, l = 1 cm) with a double-beam spectrophotometer. […] The reaction was monitored at 475 nm for up to 60 min, following dopachrome formation. Initial velocity (V = ΔA/Δmin) was converted in μM/min according to Lambert–Beer law using the molar extinction coefficient ε = 3700 M^−1cm^−1 for dopachrome at λmax = 475 nm. Michaelis–Menten parameters (Km e Vmax) were obtained by processing initial velocity vs. substrate concentration data by non-linear fitting to M-M Equation (4), using Sigmaplot 11.0 (Systat Software Inc., San Jose, CA, USA). Linearized Lineweaver–Burk Equation (5) was used to identify the inhibition mode. In both equations, V indicates the measured initial rate of reaction, [S] is the initial substrate concentration, while Vmax and Km are, respectively, the maximum reaction rate (at saturating substrate concentration) and the M-M constant, with the substrate concentration yielding half-maximum rate.
(§2) Determination of M-M inhibition constants KI and KI′, along with assignment of the inhibition mode, is the most reliable method to accurately quantify the potency of enzyme inhibitors, as it is independent of the experimental settings, like substrate and enzyme concentrations.

[3] = biological target: T1, mushroom tyrosinase (mTYR); test: Inhibition of mushroom tyrosinase diphenolase reaction (substrate L-dopa, dopachrome at 475 nm); assay type: biochemical; conditions: for Vmax^app / IC50: 30 °C; for Vmax^app: pH 6.8, L-dopa; for IC50: IC50 Diphenolase; for Ki: KI Competitive; for inhibition mode, diphenolase: from M-M and Lineweaver–Burk plots
Method: as §1
(10) KI=[I]/α−1 and KI′=[I]/α^′−1 where (11) α=(Kmapp × α^′)/Km and α^′=Vmax/Vmaxapp
as §2

mTYR = test: Stability toward air and mTYR, oxygen consumption; conditions: 0.1 mM, pH 6.8, 30 °C, axes [O2] M vs Time / s
[4] = AAPH (2.5 mM) initiated autoxidation of MeLin/Triton X-100 micelles, 37 °C, pH 7.4
[5] = MeLin in Triton X-100 micelles, pH 7.4, 37 °C
[6] = average over inhibitor concentrations
[7] = diphenolase, average over inhibitor concentrations
[8] = diphenolase, inhibitor 0.175 µM

O=C(/C=C/c1ccc(O)c(O)c1)c1ccc(O)cc1O [Butein, (E)-1-(2,4-dihydroxyphenyl)-3-(3,4-dihydroxyphenyl)prop-2-en-1-one]
kinh (inhibition rate constant) [1, 4]: 29.8 ± 9.2 10^3 M^−1s^−1 | kinh (inhibition rate constant) [1, 5]: (3.0 ± 0.9) × 10^4 M^−1s^−1 | kinh (inhibition rate constant) ([1]; MeLin in Triton X-100 micelles, pH 7.4, 37 °C, listed as butein): 30000 M⁻¹ s⁻¹ | n (stoichiometric factor of peroxyl radical trapping) ([1]; 37 °C, pH 7.4): 3.7 ± 1.1 | n (stoichiometric factor of peroxyl radical trapping) ([1]; 37 °C, pH 7.4, listed as butein): 3.7 | Vmax^app ([2]; inhibitor 1.4 µM): 3.24 ± 0.07 µM/min | Vmax^app ([2]; inhibitor 2.8 µM): 3.02 ± 0.05 µM/min | Vmax^app ([2]; inhibitor 5.6 µM): 2.21 ± 0.04 µM/min | Vmax^app ([2]; inhibitor 11.2 µM): 1.95 ± 0.07 µM/min | IC50 ([2]; pH 6.8, L-tyrosine 0.05 mM): 45.1 ± 18.3 µM | IC50 ([2]; pH 6.8, L-tyrosine 0.125 mM): 35.6 ± 28.4 µM | IC50 ([2]; pH 6.8, L-tyrosine 0.25 mM): 12.9 ± 3.22 µM | IC50 ([2]; pH 6.8, L-tyrosine 0.50 mM): 12.3 ± 2.52 µM | IC50 ([2]; pH 6.8, L-tyrosine 1.00 mM): 10.9 ± 2.19 µM | inhibition mode, monophenolase [2]: uncompetitive | inhibition mode, monophenolase ([2]; listed as BU): reversible uncompetitive | KI′ Calc. from Km [2, 6]: 10.74 ± 3.36 µM | KI′ Calc. from Vmax [2, 6]: 9.17 ± 2.01 µM | KI′ Uncompetitive ([2]; averaged over both calculation methods): 9.95 µM | KI′ Uncompetitive ([2]; averaged over both calculation methods, listed as BU): 9.95 ± 2.69 µM | KI′ Calc. from Km ([2]; inhibitor 1.4 µM): 7.47 µM | KI′ Calc. from Vmax ([2]; inhibitor 1.4 µM): 7.44 µM | KI′ Calc. from Km ([2]; inhibitor 2.8 µM): 10.50 µM | KI′ Calc. from Vmax ([2]; inhibitor 2.8 µM): 10.19 µM | KI′ Calc. from Km ([2]; inhibitor 5.6 µM): 9.60 µM | KI′ Calc. from Vmax ([2]; inhibitor 5.6 µM): 7.55 µM | KI′ Calc. from Km ([2]; inhibitor 11.2 µM): 15.40 µM | KI′ Calc. from Vmax ([2]; inhibitor 11.2 µM): 11.49 µM | Vmax^app ([3]; inhibitor 1.4 µM): 10.93 ± 0.22 µM/min | Vmax^app ([3]; inhibitor 2.8 µM): 10.60 ± 0.88 µM/min | Vmax^app ([3]; inhibitor 5.6 µM): 8.17 ± 0.21 µM/min | Vmax^app ([3]; inhibitor 11.2 µM): 7.42 ± 0.26 µM/min | IC50 ([3]; pH 6.8, L-dopa 0.05 mM): 3.76 ± 0.96 µM | IC50 ([3]; pH 6.8, L-dopa 0.125 mM): 4.12 ± 1.39 µM | IC50 ([3]; pH 6.8, L-dopa 0.25 mM): 5.38 ± 0.9 µM | IC50 ([3]; pH 6.8, L-dopa 0.50 mM): 9.31 ± 0.85 µM | IC50 ([3]; pH 6.8, L-dopa 1.00 mM): 15.2 ± 1.25 µM | Ki [3, 7]: 3.3 ± 0.75 µM | Ki ([3]; diphenolase, inhibitor 1.4 µM): 3.21 µM | Ki ([3]; diphenolase, inhibitor 2.8 µM): 2.59 µM | Ki ([3]; diphenolase, inhibitor 5.6 µM): 3.07 µM | Ki ([3]; diphenolase, inhibitor 11.2 µM): 4.35 µM | KI (competitive) lower than KI′ (uncompetitive) ([3]; diphenolase): about 5 fold | KI′ Uncompetitive [3, 7]: 18.75 ± 5.15 µM | KI′ Uncompetitive ([3]; diphenolase, inhibitor 1.4 µM): 18.04 µM | KI′ Uncompetitive ([3]; diphenolase, inhibitor 2.8 µM): 25.24 µM | KI′ Uncompetitive ([3]; diphenolase, inhibitor 5.6 µM): 12.68 µM | KI′ Uncompetitive ([3]; diphenolase, inhibitor 11.2 µM): 19.05 µM | inhibition mode, diphenolase [3]: mixed-type | oxygen consumption, zero order regression slope b[1] (mTYR; with tyrosinase 7 U/ml): -2.789e-9 | oxygen consumption, zero order regression slope b[1] (mTYR; without enzyme): -1.989e-9

COc1cc(/C=C/C(=O)c2ccc(O)cc2O)ccc1O [Homobutein, (E)-1-(2,4-dihydroxyphenyl)-3-(4-hydroxy-3-methoxyphenyl)prop-2-en-1-one]
kinh (inhibition rate constant) [1, 4]: 2.8 ± 0.9 10^3 M^−1s^−1 | kinh (inhibition rate constant) [1, 5]: (2.8 ± 0.9) × 10^3 M^−1s^−1 | kinh (inhibition rate constant) ([1]; MeLin in Triton X-100 micelles, pH 7.4, 37 °C, listed as homobutein): 2800 M⁻¹ s⁻¹ | Vmax^app ([2]; inhibitor 1.4 µM): 3.83 ± 0.04 µM/min | Vmax^app ([2]; inhibitor 2.8 µM): 3.78 ± 0.05 µM/min | Vmax^app ([2]; inhibitor 5.6 µM): 3.63 ± 0.06 µM/min | Vmax^app ([2]; inhibitor 11.2 µM): 3.15 ± 0.03 µM/min | IC50 ([2]; pH 6.8, L-tyrosine 0.05 mM): 4.01 ± 0.66 µM | IC50 ([2]; pH 6.8, L-tyrosine 0.125 mM): 4.58 ± 0.88 µM | IC50 ([2]; pH 6.8, L-tyrosine 0.25 mM): 6.06 ± 0.95 µM | IC50 ([2]; pH 6.8, L-tyrosine 0.50 mM): 8.75 ± 1.18 µM | IC50 ([2]; pH 6.8, L-tyrosine 1.00 mM): 14.8 ± 1.05 µM | Ki [2, 6]: 2.76 ± 0.7 µM | Ki ([2]; inhibitor 1.4 µM): 2.19 µM | Ki ([2]; inhibitor 2.8 µM): 2.24 µM | Ki ([2]; inhibitor 5.6 µM): 2.94 µM | Ki ([2]; inhibitor 11.2 µM): 3.67 µM | inhibition mode, monophenolase [2]: nearly competitive | KI′ Uncompetitive ([2]; mixed-type treatment, average): 140.53 ± 94.57 µM | KI′ Uncompetitive ([2]; mixed-type treatment, inhibitor 1.4 µM): 268.10 µM | KI′ Uncompetitive ([2]; mixed-type treatment, inhibitor 2.8 µM): 151.20 µM | KI′ Uncompetitive ([2]; mixed-type treatment, inhibitor 5.6 µM): 92.40 µM | KI′ Uncompetitive ([2]; mixed-type treatment, inhibitor 11.2 µM): 50.40 µM | Vmax^app ([3]; inhibitor 0.175 µM): 11.48 ± 0.22 µM/min | Vmax^app ([3]; inhibitor 0.70 µM): 11.30 ± 0.88 µM/min | Vmax^app ([3]; inhibitor 1.4 µM): 11.10 ± 0.21 µM/min | Vmax^app ([3]; inhibitor 5.6 µM): 10.84 ± 0.26 µM/min | IC50 ([3]; pH 6.8, L-dopa 0.05 mM): 3.04 ± 0.84 µM | IC50 ([3]; pH 6.8, L-dopa 0.125 mM): 3.83 ± 0.94 µM | IC50 ([3]; pH 6.8, L-dopa 0.25 mM): 5.6 ± 1.07 µM | IC50 ([3]; pH 6.8, L-dopa 0.50 mM): 7.57 ± 1.11 µM | IC50 ([3]; pH 6.8, L-dopa 1.00 mM): 12.4 ± 2 µM | Ki [3, 7]: 2.5 ± 1.56 µM | Ki [3, 8]: 1.28 µM | Ki ([3]; diphenolase, inhibitor 0.70 µM): 1.54 µM | Ki ([3]; diphenolase, inhibitor 1.4 µM): 2.46 µM | Ki ([3]; diphenolase, inhibitor 5.6 µM): 4.72 µM | lowest concentration with clear inhibition detectable ([3]; diphenolase): 175 nM | KI′ Uncompetitive [3, 7]: 38.24 ± 27.81 µM | KI′ Uncompetitive [3, 8]: 16.75 µM | KI′ Uncompetitive ([3]; diphenolase, inhibitor 0.70 µM): 26.38 µM | KI′ Uncompetitive ([3]; diphenolase, inhibitor 1.4 µM): 30.83 µM | KI′ Uncompetitive ([3]; diphenolase, inhibitor 5.6 µM): 79.01 µM | inhibition mode, diphenolase [3]: nearly competitive | oxygen consumption, zero order regression slope b[1] (mTYR; with tyrosinase 7 U/ml): -3.664e-9 | oxygen consumption, zero order regression slope b[1] (mTYR; without enzyme): -2.859e-9

— PMC10525132, “Potent Antioxidant and Anti-Tyrosinase Activity of Butein and Homobutein Probed by Molecular Kinetic and Mechanistic Studies” (Antioxidants, 2023)
